Assay results from ChEMBL document CHEMBL5107949, “Design, synthesis, and antibacterial activity of N-(trifluoromethyl)phenyl substituted pyrazole derivatives” (RSC Med Chem, 2021).
Values after ≈ are worked out from the molar mass of the structure shown. Active and inactive are the calls of the source. The calls are words filed in the database; no cut-off is given here.

Columns and labels:
Staphylococcus aureus [1] = assay: Inhibition of protein synthesis in Staphylococcus aureus ATCC 29213 at 0.5 times MIC preincubated for 30 mins followed by [3H]-leucine and measured after 40 mins by [3H]-leucine incorporation based beta scintillation counter analysis; format: functional; details: time 70.0 min
Staphylococcus aureus [2] = assay: Inhibition of protein synthesis in Staphylococcus aureus ATCC 29213 at MIC preincubated for 30 mins followed by [3H]-leucine and measured after 40 mins by [3H]-leucine incorporation based beta scintillation counter analysis; format: functional; details: time 70.0 min
Staphylococcus aureus [3] = assay: Antibacterial activity against Staphylococcus aureus clinical isolate 1088888 assessed as inhibition of bacterial growth by CLSI protocol based broth microdilution method; format: functional
Staphylococcus aureus [4] = assay: Antibacterial activity against Staphylococcus aureus clinical isolate 1088610 assessed as inhibition of bacterial growth by CLSI protocol based broth microdilution method; format: functional
Enterococcus faecium [5] = assay: Antibacterial activity against Enterococcus faecium clinical isolate 1088925 assessed as inhibition of bacterial growth by CLSI protocol based broth microdilution method; format: functional
Staphylococcus aureus [6] = assay: Antibacterial activity against antibiotic resistant Staphylococcus aureus BAA-2312 assessed as inhibition of bacterial growth by CLSI protocol based broth microdilution method; format: functional
Staphylococcus aureus [7] = assay: Inhibition of biofilm formation in Staphylococcus aureus ATCC 25923 at 3.125 to 12.5 ug/ml incubated for 24 hrs by Calgary biofilm device assay; format: functional, organism-based; details: dose 3.125-12.5 µg/ml, DDE = dose-dependent effect
Staphylococcus aureus [8] = assay: Inhibition of RNA synthesis in Staphylococcus aureus ATCC 29213 at 0.5 times MIC preincubated for 30 mins followed by [3H]-uridine and measured after 30 mins by [3H]-uridine incorporation based beta scintillation counter analysis; format: functional; details: time 60 min; 1 h
[9] = Cytotoxicity against human HEK293 cells reduction in cell viability incubated for 24 hrs by resazurin cell viability assay; format: toxicity, cell-based
Enterococcus faecalis [10] = assay: Antibacterial activity against Enterococcus faecalis clinical isolate 1091563 assessed as inhibition of bacterial growth by CLSI protocol based broth microdilution method; format: functional
Enterococcus faecalis [11] = assay: Inhibition of biofilm formation in Enterococcus faecalis ATCC 29212 at 12.5 ug/ml incubated for 24 hrs by Calgary biofilm device assay; format: functional; details: dose 12.5 µg/ml
Staphylococcus aureus [12] = assay: Antibacterial activity against Staphylococcus aureus clinical isolate 1088064 assessed as inhibition of bacterial growth by CLSI protocol based broth microdilution method; format: functional
Staphylococcus aureus [13] = assay: Inhibition of DNA synthesis in Staphylococcus aureus ATCC 29213 at 0.25 times MIC preincubated for 30 mins followed by [3H]-thymidine and measured after 30 mins by [3H]-thymidine incorporation based beta scintillation counter analysis; format: functional; details: time 60 min; 1 h
Enterococcus faecalis [14] = assay: Inhibition of biofilm formation in Enterococcus faecalis ATCC 29212 at 6.25 ug/ml incubated for 24 hrs by Calgary biofilm device assay; format: functional; details: dose 6.25 µg/ml
Staphylococcus aureus [15] = assay: Inhibition of DNA synthesis in Staphylococcus aureus ATCC 29213 at 0.5 times MIC preincubated for 30 mins followed by [3H]-thymidine and measured after 30 mins by [3H]-thymidine incorporation based beta scintillation counter analysis; format: functional; details: time 60 min; 1 h
Staphylococcus aureus [16] = assay: Bactericidal activity against Staphylococcus aureus ATCC 700699 assessed as bacteria elimination at 4 times MIC and measured after 6 hrs by time-kill assay; format: functional
Staphylococcus aureus [17] = assay: Antibacterial activity against Staphylococcus aureus clinical isolate 1088060 assessed as inhibition of bacterial growth by CLSI protocol based broth microdilution method; format: functional
Staphylococcus aureus [18] = assay: Antibacterial activity against Staphylococcus aureus clinical isolate 1088626 assessed as inhibition of bacterial growth by CLSI protocol based broth microdilution method; format: functional
Staphylococcus aureus [19] = assay: Antibacterial activity against antibiotic susceptible Staphylococcus aureus ATCC 25923 assessed as inhibition of bacterial growth by CLSI protocol based broth microdilution method; format: functional
Staphylococcus aureus [20] = assay: Inhibition of lipid synthesis in Staphylococcus aureus ATCC 29213 at MIC preincubated for 30 mins followed by [3H]-glycerol and measured after 50 mins by [3H]-glycerol incorporation based beta scintillation counter analysis; format: functional; details: time 80 min; 1.333 h
Staphylococcus aureus [21] = assay: Antibacterial activity against antibiotic resistant Staphylococcus aureus ATCC 33591 assessed as inhibition of bacterial growth by CLSI protocol based broth microdilution method; format: functional
Staphylococcus aureus [22] = assay: Inhibition of RNA synthesis in Staphylococcus aureus ATCC 29213 at 0.25 times MIC preincubated for 30 mins followed by [3H]-uridine and measured after 30 mins by [3H]-uridine incorporation based beta scintillation counter analysis; format: functional; details: time 60 min; 1 h
Staphylococcus aureus [23] = assay: Inhibition of lipid synthesis in Staphylococcus aureus ATCC 29213 at 0.5 times MIC preincubated for 30 mins followed by [3H]-glycerol and measured after 50 mins by [3H]-glycerol incorporation based beta scintillation counter analysis; format: functional; details: time 80 min; 1.333 h
Enterococcus faecium [24] = assay: Antibacterial activity against Enterococcus faecium clinical isolate 1088168 assessed as inhibition of bacterial growth by CLSI protocol based broth microdilution method; format: functional
Staphylococcus aureus [25] = assay: Antibacterial activity against antibiotic resistant Staphylococcus aureus ATCC 700699 assessed as inhibition of bacterial growth by CLSI protocol based broth microdilution method; format: functional
Enterococcus faecalis [26] = assay: Anti-biofilm activity against Enterococcus faecalis ATCC 29212 assessed as minimum bactericidal concentration incubated for 24 hrs by Calgary biofilm device assay; details: ATCC 29212, 24 h
Enterococcus faecalis [27] = assay: Anti-biofilm activity against Enterococcus faecalis ATCC 29212 assessed as eradication of biofilm formation incubated for 24 hrs by Calgary biofilm device assay; format: functional
Enterococcus faecium [28] = assay: Antibacterial activity against vancomycin resistant Enterococcus faecium ATCC 700221 assessed as inhibition of bacterial growth by CLSI protocol based broth microdilution method; format: functional
Enterococcus faecalis [29] = assay: Antibacterial activity against antibiotic susceptible Enterococcus faecalis ATCC 29212 assessed as inhibition of bacterial growth by CLSI protocol based broth microdilution method; format: functional
Enterococcus faecium [30] = assay: Antibacterial activity against Enterococcus faecium clinical isolate 1091282 assessed as inhibition of bacterial growth by CLSI protocol based broth microdilution method; format: functional
Enterococcus faecalis [31] = assay: Antibacterial activity against Enterococcus faecalis clinical isolate 1091720 assessed as inhibition of bacterial growth by CLSI protocol based broth microdilution method; format: functional
Enterococcus faecalis [32] = assay: Antibacterial activity against Enterococcus faecalis clinical isolate 1088051 assessed as inhibition of bacterial growth by CLSI protocol based broth microdilution method; format: functional
Staphylococcus aureus [33] = assay: Inhibition of RNA synthesis in Staphylococcus aureus ATCC 29213 at MIC preincubated for 30 mins followed by [3H]-uridine and measured after 30 mins by [3H]-uridine incorporation based beta scintillation counter analysis; format: functional; details: time 60 min; 1 h
Staphylococcus aureus [34] = assay: Bactericidal activity against Staphylococcus aureus ATCC 700699 persisters assessed as log reduction in colony forming unit at 2 to 32 times MIC measured for 4 hrs by time kill assay; format: functional, organism-based; details: DDE = dose-dependent effect
Staphylococcus aureus [35] = assay: Antibacterial activity against Staphylococcus aureus clinical isolate 1089106 assessed as inhibition of bacterial growth by CLSI protocol based broth microdilution method; format: functional
Staphylococcus aureus [36] = assay: Inhibition of lipid synthesis in Staphylococcus aureus ATCC 29213 at 0.25 times MIC preincubated for 30 mins followed by [3H]-glycerol and measured after 50 mins by [3H]-glycerol incorporation based beta scintillation counter analysis; format: functional; details: time 80 min; 1.333 h

## O=C(O)c1ccc(-c2nn(-c3ccc(C(F)(F)F)cc3)cc2CNc2ccc(Br)c(C(F)(F)F)c2)cc1
Staphylococcus aureus [1]
  inhibition: 53.3%
Staphylococcus aureus [2]
  inhibition: 86.1%
Staphylococcus aureus [3]
  MIC: 8 µg/mL (≈ 13.7 µM)
Staphylococcus aureus [4]
  MIC: 4 µg/mL (≈ 6.85 µM)
Enterococcus faecium [5]
  MIC: 8 µg/mL (≈ 13.7 µM)
Staphylococcus aureus [6]
  MIC: 1.56 µg/mL (≈ 2.67 µM)
Staphylococcus aureus [7]
  inhibition: Dde
Staphylococcus aureus [8]
  inhibition (INH): 38.1%
[9]
  IC50 at 24 h: > 12 µg/mL
Enterococcus faecalis [10]
  MIC: 8 µg/mL (≈ 13.7 µM)
Enterococcus faecalis [11]
  inhibition: Active
Staphylococcus aureus [12]
  MIC: 4 µg/mL (≈ 6.85 µM)
Staphylococcus aureus [13]
  inhibition (INH): 44%
Enterococcus faecalis [14]
  inhibition: Active
Staphylococcus aureus [15]
  inhibition (INH): 43.6%
Staphylococcus aureus [16]
  Activity: >99.9%
Staphylococcus aureus [17]
  MIC: 4 µg/mL (≈ 6.85 µM)
Staphylococcus aureus [18]
  MIC: 4 µg/mL (≈ 6.85 µM)
Staphylococcus aureus [19]
  MIC: 0.78 µg/mL (≈ 1.33 µM)
Staphylococcus aureus [20]
  inhibition (INH): 88.3%
Staphylococcus aureus [21]
  MIC: 1.56 µg/mL (≈ 2.67 µM)
Staphylococcus aureus [22]
  inhibition (INH): 14.1%
Staphylococcus aureus [23]
  inhibition (INH): 57%
Enterococcus faecium [24]
  MIC: 4 µg/mL (≈ 6.85 µM)
Staphylococcus aureus [25]
  MIC: 0.78 µg/mL (≈ 1.33 µM)
Enterococcus faecalis [26]
  MBC: 6.25 µg/mL (≈ 10.7 µM)
Enterococcus faecalis [27]
  MBEC: 6.25 µg/mL
Enterococcus faecium [28]
  MIC: 0.78 µg/mL (≈ 1.33 µM)
Enterococcus faecalis [29]
  MIC: 3.12 µg/mL (≈ 5.35 µM)
Enterococcus faecium [30]
  MIC: 8 µg/mL (≈ 13.7 µM)
Enterococcus faecalis [31]
  MIC: 8 µg/mL (≈ 13.7 µM)
Enterococcus faecalis [32]
  MIC: 4 µg/mL (≈ 6.85 µM)
Staphylococcus aureus [33]
  inhibition (INH): 75.5%
Staphylococcus aureus [34]
  Activity: Dde
Staphylococcus aureus [35]
  MIC: 4 µg/mL (≈ 6.85 µM)
Staphylococcus aureus [36]
  inhibition (INH): 55.4%
